Laboratory results: US20120077786A1, “METHODS AND COMPOSITIONS FOR DISEASE TREATMENT USING INHALATION” (priority 2010, published 2012)

Assays:
[1] = tested on: adult rats with preexisting elastase-induced emphysema; conditions: cited from earlier work
[2] = tested on: mice exposed to cigarette smoke; conditions: cited from earlier work
[3] = tested on: adults with hereditary emphysema; conditions: cited from earlier work
patients with COPD = conditions: extrafine, 1.1 microns in diameter, HFA pMDI; cited from earlier work
[4] = Aerosol performance of dry powder inhaler formulation, next generation Impactor; type: physicochemical; conditions: inhaler operated at 15 L/min
Procedure: Inhaled corticosteroids (ICS) mometasone furoate or fluticasone furoate are prepared with volume median particle size of less than 5 microns. Calcitriol (1, 25-Dihydroxycholecalciferol) is also prepared in crystalline form and subsequently micronized to a volume median particle size of less than 5 microns. The ICS's are incorporated at appropriately 30-50% of the commercial ICS dose when administered via a passive dry powder inhaler, due to the efficiency of the invention delivered by a dry powder inhaler (DPI) available from MicroDose Therapeutx, Inc. One preferred embodiment utilizes an ICS dosed once daily, i.e. mometasone furoate or fluticasone furoate, to coincide with a once daily dose of the vitamin D receptor agonist. This combination product is designed to reverse corticoidsteroid resistance (CR) by adding the protective anti-inflammatory effects of calcitriol with the local anti-inflamatory effects of these ICS's. The inhaler is operated at 15 L/min and for both medicaments, the aerosol performance with a fine particle fraction (% of particles exiting the inhaler that are less than 5.8 microns) is […] with at least 10% of particles in the less than 2.1 micron size range when tested with a next generation Impactor.
Calcitriol is a synthetic vitamin D analog and has been used as a pharmaceutical as well as a nutraceutical. […]

[5] = tested on: cell line cultured from patients with corticosteroid resistant asthma; conditions: after addition of vitamin D; promotion of regulatory T cells; cited from earlier work
asthmatic adults = conditions: cited from earlier work
Airway smooth muscle = conditions: cited from earlier work

For `CC1=C(/C=C/C(C)=C/C=C/C(C)=C/C(=O)O)C(C)(C)CCC1` [ATRA, All Trans Retinoic Acid], the alveolus formation [1] is listed as “induces alveolus formation”, the “formation of pulmonary emphysema” value ([2]; mice exposed to cigarette smoke) is listed as “diminishes the formation of pulmonary emphysema” and the “distance between alveolar walls” value ([2]; mice with emphysema produced by cigarette smoke) is listed as “decreases the distance between alveolar walls”. For the same molecule, the trial outcome [3] was “not been successful”.

In the case of `CCC(=O)OCC(=O)[C@@]1(OC(=O)CC)[C@@H](C)C[C@H]2[C@@H]3CCC4=CC(=O)C=C[C@]4(C)[C@@]3(Cl)[C@@H](O)C[C@@]21C` [beclomethasone dipropionate], the air trapping (patients with COPD) is listed as “significant reduction in air trapping”.

With `C=C1/C(=C\C=C2/CCC[C@]3(C)[C@@H]([C@H](C)CCCC(C)(C)O)CC[C@@H]23)C[C@@H](O)C[C@@H]1O` [calcitriol, 1, 25-Dihydroxycholecalciferol] the “particles in the less than 2.1 micron size range” value [4] was “at least 10%”.

In the case of vitamin D, the steroid sensitivity [5] is listed as “increased steroid sensitivity”, the “mean increase in FEV1 for every 1 ng/mL increase in systemic vitamin D” value (asthmatic adults) is listed as 22.7 mL and the “airway smooth muscle proliferation” value (Airway smooth muscle) is listed as “slow”.
